Test results taken from publication PMC4383039 (Science translational medicine, 2015).
Converted amounts (≈) assume the structure as drawn. “And” between values parts separate entries of the source, which are not always exact repeats. Equal values may be shown once.

Columns and labels:
Assay type in all cases: cell-based, Mycobacterium tuberculosis
[1] = system: 4-hydroxy-2-pyridone resistance mutants of Mtb
[2] = system: H37Rv∷pMV262-InhA strains; assay: microbe, parasite or virus in culture; details: for MIC50: Mycobacterium tuberculosis, H37RV, read-out: Compound MIC50
[3] = system: Mtb H37Rv

SMILES | Compound MIC50 [1] | fold more resistant than the parental H37Rv strain [1] | MIC50 [2] | Mutation frequency [3] | frequency of resistance [3] | resistance, MIC50 fold [1] | MIC50 fold shift with the Mtb H37Rv strain [2] | Compound MIC50 [2]
CC(C)Cc1cc(O)c(-c2ccccc2)c(=O)[nH]1 [NITD-529, 4-hydroxy-6-isobutyl-3-phenylpyridin-2(1H)-one] | > 40 µM | at least 25 fold | 2.59 µM (≈ 0.63 µg/mL) | 1.2×10^-8 | 1 × 10^−8 | – | – | –
CCc1cc(C(N)=S)ccn1 [ethionamide] | – | – | – | – | – | > 3 fold | – | –
NNC(=O)c1ccncc1 [isoniazid] | – | – | 0.51 µM (≈ 0.0699 µg/mL) | ∼ 1× 10^-6 | – | > 3 fold | 0.51 (2.04×) | –
[H]/N=C(/N)N[C@H]1[C@H](O)[C@@H](O)[C@H](O[C@@H]2O[C@@H](C)[C@](O)(C=O)[C@H]2O[C@@H]2O[C@@H](CO)[C@H](O)[C@@H](O)[C@@H]2NC)[C@@H](N/C(N)=N\[H])[C@@H]1O [streptomycin] | 0.1 µM and 0.09 µM and 0.08 µM and 0.06 µM | – | 0.074 µM (≈ 0.043 µg/mL) | – | – | – | – | 0.084 µM and 0.079 µM and 0.075 µM
